Among the test systems are NCI-H522 lung; K-562 leukemia; SNB-19 CNS; SNB-75 CNS; HOP-92 NSCLC; CCRF-CEM leukemia; RPMI-8226 leukemia; HCC-2998 colon; SN12C renal; OVCAR-3 ovarian; A549 NSCLC; SW-620 colon; IGROV1 ovarian; RXF 393 renal; HCT-15 colon; LOX IMVI melanoma; 786-0 renal; SF-295 CNS; UACC-62 melanoma; A498 renal.
Experiment in all cases: growth of human tumour cells (NCI), 48 h

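Cultured in 96-well plates, cells were exposed to test compound for 48 hours across five concentrations. At the TGI there is no net growth.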

Consider `Cc1cccc(C)c1NC(=O)C(=O)CC(=O)/C=C/c1ccccc1`, for which the TGI in the experiment on NCI-H522 lung, in the experiment with K-562 leukemia, with SNB-19 CNS, with SNB-75 CNS, with HOP-92 NSCLC and in the experiment on CCRF-CEM leukemia was > 100 µM in each case. Further, the TGI in the experiment with RPMI-8226 leukemia, in the experiment with HCC-2998 colon, in the experiment on SN12C renal, in the experiment on OVCAR-3 ovarian, with A549 NSCLC and in the experiment with SW-620 colon was > 100 µM in each case. The TGI with IGROV1 ovarian, with RXF 393 renal, in the experiment with HCT-15 colon, with LOX IMVI melanoma, with 786-0 renal and in the experiment with SF-295 CNS was > 100 µM each time. Also, the TGI in the experiment with UACC-62 melanoma and in the experiment with A498 renal was > 100 µM each time.

`COc1ccc(/C=C2\CN(C)C/C(=C\c3ccc(OC)cc3)C2=O)cc1`: the TGI with NCI-H522 lung, in the experiment on K-562 leukemia, in the experiment with SNB-19 CNS, in the experiment with SNB-75 CNS, in the experiment with HOP-92 NSCLC and in the experiment with CCRF-CEM leukemia was > 100 µM in each case. The TGI in the experiment on RPMI-8226 leukemia, in the experiment on HCC-2998 colon, with SN12C renal, with OVCAR-3 ovarian, in the experiment with A549 NSCLC and in the experiment on SW-620 colon was > 100 µM throughout. The TGI in the experiment on IGROV1 ovarian, with RXF 393 renal, in the experiment on HCT-15 colon, in the experiment with LOX IMVI melanoma, in the experiment with 786-0 renal and in the experiment on SF-295 CNS was > 100 µM in each case. For the same compound, the TGI in the experiment with UACC-62 melanoma and in the experiment on A498 renal was > 100 µM each time.

Take `O=C(N/N=C/c1c(-c2ccccc2)no[n+]1[O-])N1CCOCC1`: the TGI in the experiment on NCI-H522 lung, in the experiment on K-562 leukemia, in the experiment with SNB-19 CNS, in the experiment on SNB-75 CNS, in the experiment with HOP-92 NSCLC and in the experiment with CCRF-CEM leukemia was > 100 µM throughout. Moreover, the TGI in the experiment on RPMI-8226 leukemia, in the experiment on HCC-2998 colon, in the experiment on SN12C renal, in the experiment on OVCAR-3 ovarian, in the experiment on A549 NSCLC and with SW-620 colon was > 100 µM in each case. Also, the TGI in the experiment on IGROV1 ovarian, in the experiment on RXF 393 renal, in the experiment with HCT-15 colon, in the experiment with LOX IMVI melanoma, in the experiment on 786-0 renal and in the experiment on SF-295 CNS was > 100 µM in each case. For the same compound, the TGI in the experiment with UACC-62 melanoma and in the experiment with A498 renal was > 100 µM each time.

In the case of `COc1c(OC(C)C)c(OC(C)C)c2oc(=O)n3c2c1C(c1ccccc1-n1c(C)ccc1C)C=C3` (stereo not given), the TGI with NCI-H522 lung, in the experiment with K-562 leukemia, in the experiment with SNB-19 CNS, with SNB-75 CNS, in the experiment with HOP-92 NSCLC and in the experiment on CCRF-CEM leukemia was > 100 µM in each case. In addition, the TGI in the experiment with RPMI-8226 leukemia, in the experiment on HCC-2998 colon, in the experiment on SN12C renal, in the experiment with OVCAR-3 ovarian, in the experiment with A549 NSCLC and in the experiment on SW-620 colon was > 100 µM in each case. The TGI is > 100 µM in the experiment with IGROV1 ovarian; 62.5 µM with RXF 393 renal; > 100 µM in the experiment with HCT-15 colon; 59 µM with LOX IMVI melanoma; > 100 µM in the experiment with 786-0 renal; > 100 µM in the experiment with SF-295 CNS. Further, the TGI in the experiment with UACC-62 melanoma and in the experiment with A498 renal was > 100 µM each time.

On to `Clc1nssc1=Nc1nonc1-c1ccccc1`, for which the TGI was 43.4 µM in the experiment with NCI-H522 lung; 70.1 µM in the experiment with K-562 leukemia; > 100 µM with SNB-19 CNS; 64.2 µM in the experiment on SNB-75 CNS; > 100 µM in the experiment on HOP-92 NSCLC; 90.8 µM in the experiment on CCRF-CEM leukemia. Also, the TGI was 63.3 µM with RPMI-8226 leukemia; > 100 µM in the experiment with HCC-2998 colon; 42.4 µM in the experiment on SN12C renal; > 100 µM in the experiment with OVCAR-3 ovarian; > 100 µM with A549 NSCLC; > 100 µM in the experiment on SW-620 colon. Also, the TGI in the experiment on IGROV1 ovarian is 82 µM; with RXF 393 renal it was 59.6 µM; with HCT-15 colon, > 100 µM; in the experiment on LOX IMVI melanoma, > 100 µM; with 786-0 renal, > 100 µM; in the experiment with SF-295 CNS it was > 100 µM. In addition, the TGI with UACC-62 melanoma and in the experiment on A498 renal was > 100 µM throughout.

For the compound `c1ccc(C2=NCCN2)c(C2=NCCN2)c1`, the TGI in the experiment on NCI-H522 lung, with K-562 leukemia, in the experiment on SNB-19 CNS, in the experiment on SNB-75 CNS, in the experiment on HOP-92 NSCLC and in the experiment with CCRF-CEM leukemia was > 100 µM throughout. For the same compound, the TGI with RPMI-8226 leukemia, in the experiment on HCC-2998 colon, in the experiment on SN12C renal, in the experiment on OVCAR-3 ovarian, in the experiment on A549 NSCLC and in the experiment with SW-620 colon was > 100 µM in each case. Further, the TGI with IGROV1 ovarian, in the experiment with RXF 393 renal, in the experiment on HCT-15 colon, in the experiment with LOX IMVI melanoma, in the experiment on 786-0 renal and in the experiment with SF-295 CNS was > 100 µM each time. In addition, the TGI in the experiment on UACC-62 melanoma and with A498 renal was > 100 µM throughout.

As to `Cc1c(S(=O)(=O)O)ccc(N=Nc2c(O)c(C(=O)O)cc3ccccc23)c1Cl`, the TGI with NCI-H522 lung, in the experiment with K-562 leukemia, in the experiment with SNB-19 CNS, with SNB-75 CNS, in the experiment on HOP-92 NSCLC and with CCRF-CEM leukemia was > 100 µM each time. The TGI in the experiment on RPMI-8226 leukemia, in the experiment on HCC-2998 colon, with SN12C renal, in the experiment with OVCAR-3 ovarian, with A549 NSCLC and in the experiment on SW-620 colon was > 100 µM in each case. Moreover, the TGI in the experiment on IGROV1 ovarian, with RXF 393 renal, with HCT-15 colon, in the experiment on LOX IMVI melanoma, with 786-0 renal and with SF-295 CNS was > 100 µM throughout. For the same compound, the TGI with UACC-62 melanoma and with A498 renal was > 100 µM each time.
